According to patent US7338948B2, “Use of quetiapine” (AstraZeneca AB, priority 2000, dated 2008):

How the values were obtained:
[1] = system: Conduct Disorder, Childhood Onset, Moderate Severity and Attention Deficit Hyperactivity Disorder (ADHD), Combined Type; assay: Case report: patient with Conduct Disorder and ADHD treated with successive drugs
Excerpt: A person was diagnosed with ‘Conduct Disorder, Childhood Onset, Moderate Severity’ and ‘Attention Deficit Hyperactivity Disorder (ADHD), Combined Type’ (DSM-IV diagnostic criteria).

[2] = Drug level printed in brackets after the dose in the case report; details: valproate 750 mg
Experimental: In addition, they were given lithium at gradually increasing doses up to 1125 mg/day (1.7 ng/mL).

## OCCOCCN1CCN(C2=Nc3ccccc3Sc3ccccc32)CC1 [Quetiapine, 11-(4-[2-(2-hydroxyethoxy)ethyl]-1-piperazinyl)dibenzo[b,f][1.4]thiazepine]
[1]; after 90 days on quetiapine 1000 mg/day and amphetamine-based product 45 mg/day
  clinical response after 90 days: complete resolution of previous symptoms
[1]; quetiapine 1000 mg/day (400 mg morning, 600 mg evening) with amphetamine-based product 45 mg/day
  clinical response (psychiatric symptoms): dramatic reduction of their psychiatric symptoms
[1]; quetiapine increased from 50 to 300 mg/day, with amphetamine-based product 60 mg/day
  clinical response (aggression): continued to demonstrate aggression

## CCCC(CCC)C(=O)O [Valproate]
[2]
  drug level: 115 ng/mL

## COC(=O)C(c1ccccc1)C1CCCCN1 (centres unmarked) [methylphenidate]
[1]; methylphenidate taken before the amphetamine-based product and imipramine
  clinical response (earlier treatment): eventually became ineffective
